Measured values from ChEMBL document CHEMBL3507680, “University of Dundee, Gates Library screen for HepG2 cell viability”.

Assay: Human HepG2 cell viability assay in 384 well format
Format: toxicity, cell-based
Parameters: dose 125 nL, time 70.5 hour; cytotoxicity at 70.5 h: concentration not given beside the values
Details: HepG2 cells, read-out: Inhibition

Row | Compound | cytotoxicity at 70.5 h [%]
1 | Cc1csc(CN2C[C@@H]3COC[C@]3(C(=O)NCc3ccco3)C2)n1 | 14.6
2 | CSc1ncccc1C(=O)N1C[C@H]2CC[C@@H]1CN(C(=O)N(C)C)C2 | -7.79
3 | CC(C)(O)CN1CCN(C(=O)c2ccc(Cl)c3cccnc23)CC1 | 26
4 | CC(=O)N1CCCN(C(=O)c2cnn(-c3ccccc3Cl)c2)CC1 | -17.1
5 | CCn1ncc2c1NC(=O)CC2c1cnc(-c2ccccn2)nc1 (configuration not stated) | -2.85
6 | CCc1csc(NC(=O)NCc2ccccn2)n1 | -2.4
7 | Cc1c(C(=O)NCC(F)(F)F)nnn1-c1ccccc1Cl | -3.49
8 | Cn1cc(C(=O)NCc2cncc3c2CCN(S(C)(=O)=O)C3)cn1 | 0.567
9 | Cc1ccc(F)c(N2CCCC(NS(=O)(=O)CCCF)C2=O)c1 (configuration not stated) | -11.4
10 | Cc1cccnc1CN1CCN(C(=O)[C@@]23CNC[C@@H]2CN(C)C3)CC1 | -8.36
11 | CN(Cc1cccnc1)[C@@H]1CN(C(=O)c2ccco2)[C@@H]2CCCO[C@H]12 | -10.7
12 | CC(C)c1nnsc1CNC(=O)C1CCN(C(=O)C2CCCC2)CC1 | 12
13 | Cn1nc(Cn2cccc2)c2c1CN(Cc1ccsc1)C2 | -9.77
14 | Cc1noc(C)c1CNCC1Cn2nncc2CO1 (configuration not stated) | -2.84
15 | Cc1ccc(C(=O)N2CCN(CCCSCC#N)CC2)o1 | -3.91
16 | Cc1ccoc1C(=O)NC1CCN(Cc2ccccc2C#N)CC1 | -1.98
17 | CC(C)C(O)CNC(=O)CCCc1ccccn1 (configuration not stated) | 2.25
18 | CN(CCO)CC1COCCN1C(=O)CCC1CCCC1 (configuration not stated) | 47.6
19 | Cc1ncn(-c2cc(N3CCN(S(C)(=O)=O)CC3)ncn2)c1C | -4.92
20 | COCc1ccccc1C(=O)NS(=O)(=O)c1ccc2c(c1)CCC(=O)N2 | -9.29
21 | COCCC(=O)N1Cc2cnc(Cc3ccc(OC)cc3)nc2C1 | -1.53

Row | Compound | cytotoxicity at 70.5 h [%]
22 | COCC1CC2(CCN(C(=O)c3ccc(F)cc3C)CC2)CO1 (configuration not stated) | -2.86
23 | Cc1ccc(-c2cnnc(NCC3CCOCC3)n2)o1 | 28.5
24 | Cc1noc(NC(=O)c2ccccc2)n1 | -5.17
25 | COCc1nc2cc(NCc3ccc(CO)o3)ccc2o1 | 14.6
26 | Cc1cc(N2CCCN(C(=O)Cc3cccnc3)CC2)ccn1 | -6.53
27 | Cc1nc2n(n1)CC(NCc1nc(-c3cccnc3)no1)CC2 (configuration not stated) | -7.76
28 | CCOc1ccccc1N1CCN(CC2(O)CCCNC2)CC1 (configuration not stated) | -1.19
29 | COc1cc(I)c(Cl)cc1C(=O)N(C)C | -20.5
30 | Cc1cc(NC(=O)N2CCCC2CN2CCOCC2)nn1C (configuration not stated) | -10.1
31 | Cc1ccc(-c2cc(C(=O)NCCC3=CCCCC3)[nH]n2)o1 | -10.6
32 | Cc1cnn(C2CCCN(C(=O)c3ccc(OCC4CC4)nc3)C2)c1 (configuration not stated) | -3.84
33 | CN(CCc1ccccn1)[C@@H]1CCN(c2cccc(C#N)n2)C[C@H]1O | 0.836
34 | Cc1ncc(CN2CCCC(c3cc(C(N)=O)[nH]n3)C2)s1 (configuration not stated) | 57.9
35 | CC(C)C1CN(S(=O)(=O)N2CCCC2)CCCN1Cc1ccc(F)cc1 (configuration not stated) | -3.07
36 | CC(=O)N(Cc1noc(C)n1)C1CCN(Cc2ccccn2)C1 (configuration not stated) | -8.37
37 | CNc1cc(C(=O)NCCC2=CSC3=NCCCN23)ccn1 | 1.26
38 | COc1cccc(C(=O)N(C)C(C)c2c(C)n[nH]c2C)c1OC (configuration not stated) | -5.83
39 | O=C(N[C@@H]1CCNC[C@H]1O)c1ccccc1OC(F)(F)C(F)F | 0.818
40 | CC(C)CN1C(=O)CC[C@H]2CN(C(=O)c3ncc[nH]3)CC[C@H]21 | -0.867
41 | CN(C)[C@@H]1CO[C@H](CNC(=O)C2CCCC2)[C@H]1O | 6.3
42 | Cn1ccc2cc(C(=O)NC3CCS(=O)(=O)C3)ccc21 (configuration not stated) | -10.9

Row | Compound | cytotoxicity at 70.5 h [%]
43 | O=C(c1n[nH]c2c1CCN(Cc1nccs1)C2)N1CCOCC1 | 4.7
44 | CCc1nc(C)c(C(=O)N2C[C@H]3CC[C@@H]2CN(S(=O)(=O)N(C)C)C3)s1 | 8.88
45 | CO[C@@H]1CCN(Cc2ccoc2)[C@H]1Cc1ccccc1 | -5.28
46 | Cc1nn(C)c(C)c1CN1CCN(CC2(O)CCCN(C)C2)CC1 (configuration not stated) | -10.5
47 | Cc1cc(C(=O)N(C)S(C)(=O)=O)ccc1F | 11.2
48 | Cc1ccc(NC2CCN(C(=O)c3cccnc3O)CC2)nn1 | 16.5
49 | CNS(=O)(=O)c1ccc(C(=O)N2CCCC(n3cccn3)C2)cc1 (configuration not stated) | -8.29
50 | O=C(c1cscn1)N1CCn2cnc(COCC3CC3)c2C1 | -4.79
51 | CC(C)(O)c1cn(C2CCN(C(=O)CCC3CCCC3)CC2)nn1 | 27
52 | COCC(=O)N1CCCC1c1nccnc1Nc1nc(C)cs1 (configuration not stated) | -7.14
53 | COc1ccc(-n2ccc(C(=O)N3CCN(C)CC3C)n2)cc1 (configuration not stated) | -5.83
54 | O=C(c1cc(-c2cccs2)cs1)N1CCSCC1 | -5.68
55 | Cc1nc(CN2C(=O)CCC23CCN(c2ncccn2)CC3)cs1 | -8.07
56 | NC(=O)C(CNC(=O)CCc1ccccc1)Cc1ccc(F)cc1 (configuration not stated) | -2.33
57 | CC(=O)NCC(=O)N1CCc2c(CN(C)C)nn(C(C)C)c2C1 | -2.84
58 | Cc1ccccc1OCC1CCCN(c2cc(N)nc(N)n2)C1 (configuration not stated) | -8.34
59 | Cc1csc(N2CCN(C(=O)C(C(C)C)n3cncn3)CC2)n1 (configuration not stated) | -1.51
60 | O=C(NC[C@@H]1CCCN1)c1cc(COc2cccc(C(F)(F)F)c2)[nH]n1 | -1.5
61 | COc1cc(OC)cc(-c2cc(CN)nc3ccnn23)c1 | -4.26
62 | COC(=O)N1CCCC(NC(=O)NCc2nc(C)cs2)C1 (configuration not stated) | -8.72
63 | O=C(NC[C@]1(O)CCN(Cc2ccccc2F)C[C@H]1O)c1c[nH]cn1 | -0.237

Row | Compound | cytotoxicity at 70.5 h [%]
64 | COCCN1CCN(CC(O)c2ccc(OC(F)(F)F)cc2)CC1 (configuration not stated) | -2.07
65 | CCc1nc(C2CCCN(c3ncc(Br)cn3)C2)no1 (configuration not stated) | -14.4
66 | Cc1ccc(-c2cn(C3CCN(C(=O)[C@H]4CCCO4)CC3)nn2)cc1 | -5.5
67 | c1cnnc(N2CCCC2CNCc2cnc(N3CCCC3)nc2)c1 (configuration not stated) | -7.83
68 | O=C(CCc1ccccc1Br)N1CC(S(=O)(=O)C2CCCCC2)C1 | -5.63
69 | O=C(Cn1ccc2ncccc2c1=O)N1CCCCC1 | 13.3
70 | CC(=O)Nc1ccc(Cl)c(C(=O)N(C)C(C)c2ccon2)c1 (configuration not stated) | 5
71 | CS(=O)(=O)N1CCc2ccc(=O)n(CC3CC3)c2CC1 | -7.85
72 | O=c1c2c(ncn1CCO)nc1n2CCC1 | -5.61
73 | CCc1ncc2c(n1)CN(Cc1cc(C)on1)CC2 | -106
74 | Cc1ccccc1-c1noc(CN2CCc3cncnc3C2)n1 | -11.1
75 | CCN1CCN(CCNC(=O)c2sc(C(C)C)nc2C)CC1 | 0.965
76 | COc1cccc(-c2n[nH]cc2-c2nc(CC3CCN(C)CC3)no2)c1 | -6.75
77 | O=C(CN1CCOC(CNc2cccnn2)C1)NCc1cccs1 (configuration not stated) | -0.0167
78 | CNC(=O)C1Cc2ccccc2CN1CCCc1ccccc1 (configuration not stated) | -4.46
79 | CCS(=O)(=O)N1CCC2(CC(=O)N(c3cccc(C)c3)C2)C1 (configuration not stated) | -4.67
80 | Cc1cccc(Nc2nccnc2C2CCCN2CC(=O)N(C)C)n1 (configuration not stated) | 18.8
81 | COc1ccc(CN2C[C@@H]3COC[C@@H](N4CCN(C)CC4)[C@@H]3C2)cc1 | 0.325
82 | O=C(O)CN1CCCC2(CCN2Cc2cccc(F)c2)C1 (configuration not stated) | -1.42
